Results as given in patent publication US20070042967A1, “Proteaseome inhibitors for the treatment of herpesviridae infected individuals” (priority 2002, published 2007).
Where a SMILES comes first, the peptide text is derived from it. The star is where a group is joined. Cbz = O=C(OCc1ccccc1)*; OtBu = CC(C)(C)O*

Legend:
ICAM-1 (CD54) = assay: Surface expression of ICAM-1 (CD54) on HELF by flow cytometric analysis; format: cell-based, human; settings: GCV for comparison; AD169 m.o.i.=1
Experimental: Next, we wondered whether MG132 is able to reduce the immune modulatory activity of HCMV. Therefore we measured the levels of extracellular IL-6, IL-8, and RANTES in the supernatants of mock-infected and AD-169-infected HELF (m.o.i. =1) following culture in the presence or absence of increasing amounts of MG132. In parallel, surface expression of ICAM-1 (CD54) was measured by flow cytometric analysis. As expected infection of HELF with AD 169 increased secretion of IL-6, EL-8 and RANTES (data not shown) as well as surface expression of ICAM-1 over time (FIGS. 14A and B). […]
(§1) Cell culture fluids were tested for RANTES using the ELISA KIT from R&D System, Germany, following the manufacturers instructions. […] Surface CD54 amounts were analysed using a FACScalibur analyser and cellquest software (Becton Dickinson, Germany). Data were calculated as A mean fluorescence intensities of CD54 and isotype control antibodies (=specific mean fluorescence intensity, MFI).
MG132-dependent suppression of HCMV-induced ICAM-1 surface expression Uninfected and AD169-infected HELF (m.o.i.=1) were grown in the absence or presence of MG132 or GCV and harvested 24 h (A) or 48 h (B) p.i. for surface ICAM-1 measurement by flowcytometric analysis. The specific MFI of uninfected and untreated control HELF was calculated as 100%. […]

[1] = system: HCMV IE1/2 enhancer/promoter; assay: TNFα stimulation / basal activity of the HCMV IE1/2 enhancer/promoter, CAT reporter (pRR55) in HL-60 cells; format: cell-based, HCMV strain Ad169; settings: for influence on TNFα stimulation of the IE1/2 enhancer/promoter (in words): HL-60, HCMV AD169 promoter
Experimental: As a model for undifferentiated monocyte/granulocyte progenitor cells HL-60, cells (ATCC No. CCL 240) expressing high levels of CD34+ but low levels of typical differentiation antigens like CD11a-c and CD14 on their surface were used. Furthermore, HL-60 cells have retained the ability, to differentiate into granulocytes and monocytes depending on the stimulus. HL-60 cells were grown in RPMI 1640 medium supplemented with 10% fetal calf serum (both certified endotoxin-free, Biochrome, Germany) at 37° C. in a 5% humidified atmosphere. […] The cells were grown up to 1×10^6 cells per ml. HL-60 cells were transiently transfected with the plasmid pRR55 containing the native HCMV strain Ad169 IE1/2 enhancer/promoter region between nucleotides […] and +52 relative to the transcription start site upstream of the chloramphenicol acetyl transferase (CAT) reporter gene (Fickenscher et al., 1989). Plasmid DNA was prepared using the endofree Maxi Kit (QUIAGEN, Germany or Machery & Nagel, Germany) and stored in aliquots at −20° C. Transient transfection was performed using the DEAE transfection protocol (Stein et al., 1993). Per transfection reaction 5×10^5 cells were washed once with FCS-free medium and then resuspendend in 250 μl transfection buffer containing 1×TBS (24 mM Tris-HCl, pH 7.4, 137 mM NaCl, 5 mM KCl, 0.7 mM CaCl2, 0.5 mM MgCl2, 0.6 mM Na2HPO4), 2.5 μg plasmid DNA (1 μg/μl ) and 5 mg/ml DEAE dextran (Pharmacia-Amersham, Germany). To avoid differences in transfection efficiency, cells for parallel probes were transfected in one reaction and splitted after transfection. Transfection occurred for 1 h at 37° C. After that the cells were washed once with FCS-free RPMI 1640 medium and resuspended in medium containing 10% FCS at a concentration of 5×10^5 cells/5 ml. MG-132 (Calbiochemie, Germany) was dissolved in ethanol (5 μg/μl) and stored in aliqotes at −20 ° C. MG-132 was added into the medium at time zero after transfection and 1 h before TNFα (5 ng/ml, human recombinant TNFα; PAN, Germany, stored in aliquots containing 10 μg/μl at −80° C.). The cells were harvested 48 h after transfection, washed once with PBS and resuspended in 70 μl CAT buffer 1 (0.25 M Tris/HCl, pH 7.8, 0.5 mM EDTA). After 10 min of incubation on ice, cell extracts were prepared by repeated frozen/thawing of the cells (routinely 5 times), 10 min incubation at 65 ° C. to inactivate isoenzymes. Cell debris was removed by centrifugation at 12000 rpm for 10 min in an Eppendorf centrifuge. Cell extracts were measured for their protein concentrations using the method of Bradford (Bradford, 1976) and Bradford reagent (Sigma, Germany). Equal quantities of protein were used in the CAT-assay as described by Gorman et al., 1982. 20 μl lysates were incubated with [^14C]chloramphenicol (Hartman Analytic, Germany) and acetyl-CoA (Sigma, Germany) at 37° C. Reaction was stopped by extraction with ethylacetat (Merck, Germany). The acetylated products were quantified after separation by thin-layer chromatography using a thin layer scintillator. […] In the presence of 0.1 μg/ml MG-132 reduced TNFα stimulation by 50% (FIG. 1).
The reporter gene plasmid pRR55 contains the whole HCMV IE1/2 enhancer/promoter region between nucleotides +52 and −637 with respect to the IE1 transcriptions start site, upstream of the chloramphenicol acetyltransferase (CAT) gene [Fickenscher H, Stamminger T, Riiger R & Fleckenstein B. The role of a repetetive palindrormic sequence element in the human cytomegalovirus major immediate early enhancer. J Gen Virol 1989; 70:107-123.]. The plasmid was kindly provided by T. Stamminger (Eriangen, Germany). For transient transfection of HL-60 cells we used the DEAE dextran method as described earlier [Stein J, Volk H D, Liebenthal C, Kruger D H & Prosch S. Tumor necrosis factor alpha stimulates the activity of the human cytomegalovirus major immediate early enhancer/promoter in immature monocytic cells. J Gen Virol 1993; 74:2333-2338]. […]

HL-60 cells = assay: Cytotoxic effects on HL-60 cells; format: cell-based; settings: at 0.5 and 0.1 μg/ml
Experimental: (§2) Granulocyte/monocyte progenitor like HL-60 cells (ACC CCL 240) were grown in RPMI 1640 medium supplemented with 10% foetal calf serum (FCS, both from Biochrom, Germany and certified to be endotoxin free). Permissive human embryonal lung fibroblasts (HELF) were grown as monolayer in Dulbecco's modified Eagle's medium (BioWhittaker Europa, Belgium) containing 2.0% FCS. Virus stocks of HCMV strain AD169. of laboratory-derived ganciclovir (GCV)-resistant viruses XbaF 4-3-1 and 1117′ 3-1-2 (both are kindly provided from K. K. Biron, Burroughs Wellcome Colo.), HSV 1, strain K, and HSV 2, strain DG (both are patients isolates from the strain collection of this institute) were prepared from the supernatant of infected cell cultures and stored in liquid nitrogen. For standard plaque reduction assays as well as for experiments with immunoblot analysis HELF were seeded into 25 cm^2 cell culture flasks. For preparation of cytosolic and nuclear extracts cells were seeded into 100 cm^2 culture flasks. Generally, confluent monolayers were infected at an multiplicity of infection (m.o.i.) of 0.0002 for standard plaque reduction assay and a m.o.i. of 1 for immunoblot analysis, for preparation of cytosolic and nuclear extracts as well as for measurement of cytokine, chemokine and adhesion molecules in cell culture supernatant. […]

HCMV AD169 = HCMV AD169 replication in human embryonal lung fibroblasts (CPE / IE staining, day 5 p.i.); format: cell-based, human cytomegalovirus
Excerpt: Human embryonal lung fibroblasts (HELF), one of the target cells of HCMV in vivo, are fully permissive for HCMV replication in vitro. For infection experiments the laboratory adapted strain AD169 was propagated on HELFs. Virus stocks prepared from the overlay of infected cells showing 100% cytopathic effect (CPE) by ultra centrifugation were stored in liquid N2. Confluent HELF monolayer in 50 cm^2 flasks were infected with AD169 at a multiplicity of infection (M.O.I.) of 0.01. Adsorption of the virus was allowed for 1 hour at 37° C. After that the monolayer was overlayed with MEM containing 4.5% FCS. Medium was free of or substituted with the proteasome inhibitor at the indicated concentration. Virus cultures were cultivated for 5 days without changing the medium. On day five p.i. virus replication, was quantified by the number of CPE visible in inverse light microscope. For quantification cells were stained with an HCMV-specific antibody recognising the IE proteins IE1 and IE2 (clone E13, Harlan Sera-tab, Loughborough, GB, 1:5000), goat anti-mouse HRP-conjugated IgG (1:4000; Boehringer Mannheim, Indianapolis, Ind., USA) as secondary antibody and the AEC staining kit (Sigma, Germany) which gives a reed nuclear staining of infected cells.
Granulocyte/monocyte progenitor like HL-60 cells (ACC CCL 240) were grown in RPMI 1640 medium supplemented with 10% foetal calf serum (FCS, both from Biochrom, Germany and certified to be endotoxin free). Permissive human embryonal lung fibroblasts (HELF) were grown as monolayer in Dulbecco's modified Eagle's medium (BioWhittaker Europa, Belgium) containing 2.0% FCS. Virus stocks of HCMV strain AD169. of laboratory-derived ganciclovir (GCV)-resistant viruses XbaF 4-3-1 and 1117′ 3-1-2 (both are kindly provided from K. K. Biron, Burroughs Wellcome Colo.), HSV 1, strain K, and HSV 2, strain DG (both are patients isolates from the strain collection of this institute) were prepared from the supernatant of infected cell cultures and stored in liquid nitrogen. […]

HELF = assay: Toxicity for HELFs; format: cell-based, human; settings: 0.2 μg/ml
Experimental: as §2

HSV1 strain K = assay: HSV1 replication in HELF (CPE count); format: cell-based, Herpes Simplex Type 1; settings: 0.2 to 0.01 μg/ml (0.42 to 0.021 μM)
Experimental: (§3) Confluente HELF monolayers in 24 well tissue culture plates were infected with HSV1 strain K or HSV2 at a M.O.I. of 0.001. Virus adsorption was allowed for 1 h at 37° C. After removing the viral inoculate, cells were overlayed with MEM/E, 1% Methocel and incubated for two days at 37° C. in a 5% CO2 atmosphere. MG-132 at the indicated concentrations was added into the medium after adsorption. CPEs were quantified by light microscopy. MG132 had no effect on HSV1 (FIG. 6) and HSV2 (not shown) replication in HELF.

HSV2 = HSV2 replication in HELF (CPE count); format: cell-based, Herpes Simplex Type 2; settings: not shown
Experimental: as §3

IL-6 = assay: Extracellular IL-6 in supernatants of AD169-infected HELF (ELISA); format: cell-based, human; settings: increasing amounts; data not shown
Experimental: (§4) Next, we wondered whether MG132 is able to reduce the immune modulatory activity of HCMV. Therefore we measured the levels of extracellular IL-6, IL-8, and RANTES in the supernatants of mock-infected and AD-169-infected HELF (m.o.i. =1) following culture in the presence or absence of increasing amounts of MG132. In parallel, surface expression of ICAM-1 (CD54) was measured by flow cytometric analysis. As expected infection of HELF with AD 169 increased secretion of IL-6, EL-8 and RANTES (data not shown) as well as surface expression of ICAM-1 over time (FIGS. 14A and B). While virus-induced secretion of IL-6, IL-8, and RANTES was not inhibited by the proteasome inhibitor, but, in some experiments even increased (data not shown), virus-induced surface expression of ICAM-1 was prevented (FIG. 14). […] For comparison, GCV had no influence on virus-induced ICAM-1 expression, but rather sustained its density on the cell surface (FIG. 14, last columns).
(§5) For measurement of IL-6 and EL-8 cell culture supernatants were collected from mock-infected and AD169-infected HELF cultivated in the presence or absence of MG132 or GCV (m.o.i.=1) immediately after adsorption of the virus (day 0) as well as at day 1, 2, 3 and 5 p.i. and tested for IL-6 and EL-8 by Immulite™ semiautomatic. ELISA analysis as described by the manufacturer (DPC Biermann, Germany).

IL-8 = assay: Extracellular IL-8 in supernatants of AD169-infected HELF (ELISA); format: cell-based, human; settings: increasing amounts; data not shown
Experimental: as §4, §5

RANTES = assay: Extracellular RANTES in supernatants of AD169-infected HELF (ELISA); format: cell-based, human; settings: increasing amounts; data not shown
Experimental: as §4, §1

Nc1nc(O)c2ncn(COC(CO)CO)c2n1 [GCV, Ganciclovir]
influence on virus-induced ICAM-1 expression (ICAM-1 (CD54)): no influence

CC(C)C[C@@H](C=O)NC(=O)[C@H](CC(C)C)NC(=O)[C@H](CC(C)C)NC(=O)OCc1ccccc1 [MG-132, N-carbobenzoxy-L-leucinyl-L-leucinyl-L-leucinal] (Cbz-Leu-Leu-Leu-aldehyde)
reduction of TNFα stimulation ([1]; 0.1 μg/ml, HL-60, TNFα 5 ng/ml): 50% | decrease of TNFa-mediated stimulation ([1]; 0.8 μM, HL-60): about 80% | concentrations that inhibit basic, TNFα-independent activity of the IE1/2 enhancer/promoter ([1]; HL-60, without TNFα): above 0.5 μg/ml | cytotoxic effects on HL-60 cells (HL-60 cells): no cytotoxic effects | effect on virus replication (HCMV AD169; 0.01 μg/ml (0.016 μM), AD169, HELF): no effect | number of IE-positive cells per foci compared with the untreated control (HCMV AD169; 0.1 μg/ml (0.21 μM)): about 50% | number of virus-infected (IE-positive) cells per focus (HCMV AD169; 0.2 μg/ml (0.42 μM), untreated 50): 7 cells | toxicity for HELFs (HELF): non-toxic | effect on HSV1 replication in HELF (HSV1 strain K): no effect | effect on HSV2 replication in HELF (HSV2): no effect | virus-induced secretion of IL-6 (IL-6): not inhibited | virus-induced secretion of IL-8 (IL-8): not inhibited | virus-induced secretion of RANTES (RANTES): not inhibited

CC(C)C[C@H](NC(=O)OCc1ccccc1)C(=O)N[C@@H](CC(C)C)C(=O)N[C@H](C=O)Cc1ccccc1 [PS-2, Z-Leu-Leu-Phe-CHO] (Cbz-Leu-Leu-Phe-aldehyde)
influence on TNFα stimulation of the IE1/2 enhancer/promoter (in words) [1]: reduce TNFα stimulation in a concentration-dependent manner

Cbz-IE(OtBu)AL-aldehyde [PS-1]
decrease of TNFα stimulation ([1]; 0.5 to 0.1 μg/ml (0.81 to 0.16 μM), HL-60): about 60% | influence on TNFα stimulation of the IE1/2 enhancer/promoter (in words) [1]: reduce TNFα stimulation in a concentration-dependent manner

N-carbobenzoxy-L-leucinyl-L-leucinyl-L-leucinal [MG-132]
influence on TNFα stimulation of the IE1/2 enhancer/promoter (in words) [1]: decreased TNFα stimulation of the IE1/2 enhancer/promoter in a concentration-dependent manner
